# Measurements: article PMC9737391, “Trifluoromethylcinnamanilide Michael Acceptors for Treatment of Resistant Bacterial Infections” (International Journal of Molecular Sciences, 2022)
# Where “and” joins values, the source holds several entries; their conditions need not be identical. Equal entries are not always repeated.
# Assays:
# [1] = Lipophilicity determination by RP-HPLC; format: physicochemical; details: RP-HPLC, logarithm of capacity factor k
# Protocol: It is evident from the graphs in Figure 1 that the correlation coefficients of the dependences of log k/log D6.5/log D7.4 have a value of r = 0.999 (n = 32), which means that the investigated compounds behave insignificantly differently in aqueous media with different pH. Moreover, lipophilicity was calculated as log P and Clog P using two prediction programs. […] Therefore, only log P values predicted by ACD/Percepta can be used for correlations with experimental values. These matches are shown in the graphs in Figure 2, and according to the correlation coefficient r~0.940 (n = 32), it can be argued that even the predicted lipophilicity values correlate with the experimentally measured ones. However, the largest variations were observed (no difference for series 1, 2) for compounds substituted with 2-Cl, 2-CF3, 2,5-Cl, 4-F, 4-CF3, and 3,5-F, 3,5-Cl. These are mainly substituents capable of forming hydrogen and other types of non-bonding interactions both with the surrounding environment and within the molecule. Overall, series 1 (3-CF3) is less lipophilic than series 2 (4-CF3), but the differences in the experimental data are insignificant. Unsubstituted derivatives 1a/2a are the least lipophilic compounds, while derivatives 1o/2o (3,5-Cl) and 1p/2p (3,5-CF3) are the most lipophilic compounds.
# Experimental determination of lipophilicity values (log k, log D6.5, and log D7.4) was performed under the same conditions and on the same device as described by Strharsky et al..
# [2] = tested on: methicillin-resistant S. aureus 63718 (MRSA3); assay: MIC, microtitration broth method; format: cell-based; details: Staphylococcus aureus; MRSA 63718
# [3] = tested on: methicillin-resistant S. aureus SA 3202 (MRSA1); assay: MIC, microtitration broth method; format: cell-based; details: Staphylococcus aureus; MRSA SA 3202
# [4] = tested on: Enterococcus faecalis ATCC 29212; assay: MIC, microtitration broth method; format: cell-based; details: ATCC29212, E. faecalis reference strain
# [5] = tested on: methicillin-resistant S. aureus SA 3202 (MRSA1); assay: MBC, agar aliquot subculture method; format: cell-based; details: Staphylococcus aureus; MRSA SA 3202
# [6] = tested on: vancomycin-resistant E. faecalis VRE 725B (VRE3); assay: MIC, microtitration broth method; format: cell-based, Enterococcus faecalis
# [7] = tested on: Enterococcus faecalis ATCC 29212; assay: MBC, agar aliquot subculture method; format: cell-based; details: ATCC29212, E. faecalis reference strain
# [8] = tested on: vancomycin-resistant E. faecalis VRE 342B (VRE1); assay: MIC, microtitration broth method; format: cell-based, Enterococcus faecalis
# [9] = tested on: Staphylococcus aureus ATCC 29213; assay: MBC, agar aliquot subculture method; format: cell-based; details: ATCC29213, S. aureus ATCC 29213
# [10] = tested on: Mycobacterium marinum CAMP 5644; assay: In vitro antimycobacterial evaluation (MIC); format: cell-based; details: for MIC MM: M. marinum CAMP 5644; for MIC: Mycobacterium marinum, CAMP5644, M. marinum CAMP 5644
# [11] = tested on: methicillin-resistant S. aureus SA 630 (MRSA2); assay: MIC, microtitration broth method; format: cell-based; details: Staphylococcus aureus; MRSA SA 630
# M. smegmatis ATCC 700084 = assay: In vitro antimycobacterial evaluation (MIC); format: cell-based, Mycobacterium smegmatis; details: for MIC: Mycolicibacterium smegmatis, ATCC700084
# [12] = tested on: human monocytic leukemia cell line THP-1; assay: In vitro cell viability (cytotoxicity screening); format: cell-based; details: 24 h, medium with 10% FBS, ± SD, n = 6
# Protocol: The investigated anilides can be divided into three groups. […] Higher concentrations (than 10 or 30 µM) were not possible to evaluate due to precipitation of the tested compounds in water medium. Based on all these observations, it can be concluded that the high antimicrobial activity of 3,5-CF3-substituted compounds is associated with significant cytotoxic effect against eukaryotic cells. On the other hand, the other still effective compounds, especially agents 1j and 1o, have an insignificant toxic effect, which makes them interesting for further study.
# Human monocytic leukemia THP-1 cells obtained from the European Collection of Cell Cultures (ECACC, Salisbury, UK) were used for in vitro antiproliferative assays. A recently described procedure was used.
# S. aureus/MRSA = assay: Antistaphylococcal activity, summary over strains; format: cell-based, Staphylococcus aureus; details: for MIC: Staphylococcus aureus, MRSA, average over the named compounds and strains, read-out: average MIC against S. aureus/MRSA; for antistaphylococcal MICs/MBCs: range over S. aureus and MRSA isolates and over the named compounds
# [13] = tested on: vancomycin-resistant E. faecalis VRE 368 (VRE2); assay: MBC, agar aliquot subculture method; format: cell-based, Enterococcus faecalis
# [14] = tested on: vancomycin-resistant E. faecalis VRE 368 (VRE2); assay: MIC, microtitration broth method; format: cell-based, Enterococcus faecalis
# [15] = tested on: methicillin-resistant S. aureus 63718 (MRSA3); assay: MBC, agar aliquot subculture method; format: cell-based; details: Staphylococcus aureus; MRSA 63718
# [16] = tested on: methicillin-resistant S. aureus SA 630 (MRSA2); assay: MBC, agar aliquot subculture method; format: cell-based; details: Staphylococcus aureus; MRSA SA 630
# [17] = tested on: vancomycin-resistant E. faecalis VRE 342B (VRE1); assay: MBC, agar aliquot subculture method; format: cell-based, Enterococcus faecalis
# E. faecalis/VRE = assay: Anti-enterococcal activity, summary over strains; format: cell-based, Enterococcus faecalis; details: for MIC: Enterococcus faecalis, VRE, average over the named compounds and strains, read-out: average MIC against E. faecalis/VRE; for anti-enterococcal MICs/MBCs: range over E. faecalis and VRE isolates and over the named compounds
# S. aureus ATCC 29213 = assay: MTT assay, inhibition of bacterial respiration; format: cell-based, Staphylococcus aureus
# Description: The MTT assay can be used to assess cell growth by measuring respiration. Respiratory activity of bacterial cells (which is finally reflected in their viability) less than 70% after exposure to the MIC values for each tested compound is considered as a positive result of this assay. This low level of cell oxidative metabolism indicates inhibition of cell growth by inhibition of respiration. The lowest multiples of MIC values that achieved more than 70% inhibition of S. aureus ATCC 29213 viability (%) are shown in Table 3.
# The percent inhibition of respiration of S. aureus ATCC 29213 was determined through the MTT assay. The assay was performed as described recently. The percent viability is calculated through the comparison of a measured value and that of the uninhibited control: % viability = OD570E/OD570P × 100, where OD570E is the reading from the compound-exposed cells, while OD570P is the reading from the uninhibited cells (positive control). Cytotoxic potential is determined by a percent viability of <70% [46, 47].
# [18] = tested on: vancomycin-resistant E. faecalis VRE 725B (VRE3); assay: MBC, agar aliquot subculture method; format: cell-based, Enterococcus faecalis
# [19] = tested on: Staphylococcus aureus ATCC 29213; assay: MIC, microtitration broth method; format: cell-based; details: ATCC29213, S. aureus ATCC 29213
# [20] = tested on: M. smegmatis and M. marinum; assay: Antimycobacterial activity, summary over both strains; format: cell-based; details: average over the named compounds and strains; read-out: average MIC against M. smegmatis and M. marinum
smiles,measurement,setting,value
"O=C(/C=C/c1cccc(C(F)(F)F)c1)Nc1ccc(C(F)(F)F)cc1 [1j, (2E)-3-[3-(Trifluoromethyl)phenyl]-N-[4-(trifluoromethyl)phenyl]prop-2-enamide]",log k,[1],0.9247
same,MIC,[2],2.78 µM
same,MIC,[3],2.78 µM
same,MIC,[4],22.3 µM
same,MBC,[5],2.78 µM
same,MIC,[6],22.3 µM
same,MBC,[7],22.3 µM
same,MIC,[8],22.3 µM
same,MBC,[9],2.78 µM
same,MIC MM,[10],0.348 – µM
same,MIC,[10],0.29 to 22.2 µM
same,MIC,[11],1.39 µM
same,MIC,M. smegmatis ATCC 700084,11.1 µM
same,IC50,[12],> 30 µM
same,MIC,S. aureus/MRSA,~1.4 µM
same,antistaphylococcal MICs/MBCs,S. aureus/MRSA,0.15 to 5.57 µM and 0.146 to 5.57 µM
same,melting point,,118 to 120 °C
same,MBC,[13],44.5 µM
same,MIC,[14],44.5 µM
same,MBC,[15],5.57 µM
same,MBC,[16],1.39 µM
same,MBC,[17],22.3 µM
same,MIC,E. faecalis/VRE,~15 µM
same,anti-enterococcal MICs/MBCs,E. faecalis/VRE,2.34 to 44.5 µM
same,Conc.: lowest multiple of MIC with at least 70% inhibition of respiratory activity,S. aureus ATCC 29213,0.5× MIC (0.5× MBC)
same,Conc.: the same concentration as multiple of MBC,S. aureus ATCC 29213,0.5× MIC (0.5× MBC)
same,MBC,[18],22.3 µM
same,MIC,[19],2.78 µM
same,MIC,[20],~4.1 µM
"O=C(/C=C/c1cccc(C(F)(F)F)c1)Nc1cc(C(F)(F)F)cc(C(F)(F)F)c1 [1p, (2E)-N-[3,5-bis(Trifluoromethyl)phenyl]-3-[3-(trifluoromethyl)phenyl]prop-2-enamide]",log k,[1],1.3648
same,MIC,[2],0.585 µM
same,MIC,[3],2.34 µM
same,MBC,[5],2.34 µM
same,MBC,[9],1.17 µM
same,MIC,[11],1.17 µM
same,MIC,M. smegmatis ATCC 700084,9.36 µM
same,IC50,[12],6.7 ± 1.1 µM
same,melting point,,147 to 149 °C
same,MBC,[15],1.17 µM
same,MBC,[16],1.17 µM
same,Conc.: lowest multiple of MIC with at least 70% inhibition of respiratory activity,S. aureus ATCC 29213,1× MIC (1× MBC)
same,Conc.: the same concentration as multiple of MBC,S. aureus ATCC 29213,1× MIC (1× MBC)
same,MIC,[19],1.17 µM
same,MIC,[20],~4.1 µM
"O=C(/C=C/c1ccc(C(F)(F)F)cc1)Nc1cccc(C(F)(F)F)c1 [2i, (2E)-N-[3-(Trifluoromethyl)phenyl]-3-[4-(trifluoromethyl)phenyl]prop-2-enamide]",log k,[1],0.8867
same,MIC,[2],2.78 µM
same,MIC,[3],2.78 µM
same,MIC,[4],11.1 µM
same,MBC,[5],2.78 µM
same,MIC,[6],11.1 µM
same,MBC,[7],11.1 µM
same,MIC,[8],11.1 µM
same,MBC,[9],1.39 µM
same,MIC,[11],1.39 µM
same,MIC MS,M. smegmatis ATCC 700084,no effect
same,IC50,[12],> 10 µM
same,MIC,S. aureus/MRSA,~1.4 µM
same,antistaphylococcal MICs/MBCs,S. aureus/MRSA,0.15 to 5.57 µM and 0.146 to 5.57 µM
same,melting point,,134 to 136 °C
same,MBC,[13],44.5 µM
same,MIC,[14],11.1 µM
same,MBC,[15],2.78 µM
same,MBC,[16],1.39 µM
same,MBC,[17],22.3 µM
same,MIC,E. faecalis/VRE,~15 µM
same,anti-enterococcal MICs/MBCs,E. faecalis/VRE,2.34 to 44.5 µM
same,Conc.: lowest multiple of MIC with at least 70% inhibition of respiratory activity,S. aureus ATCC 29213,1× MIC (1× MBC)
same,Conc.: the same concentration as multiple of MBC,S. aureus ATCC 29213,1× MIC (1× MBC)
same,MBC,[18],11.1 µM
same,MIC,[19],1.39 µM
"O=C(/C=C/c1ccc(C(F)(F)F)cc1)Nc1cc(C(F)(F)F)cc(C(F)(F)F)c1 [2p, (2E)-N-[3,5-bis(Trifluoromethyl)phenyl]-3-[4-(trifluoromethyl)phenyl]prop-2-enamide]",log k,[1],1.3665
same,MIC,[2],0.293 µM
same,MIC,[3],0.585 µM
same,MIC,[4],2.34 µM
same,MBC,[5],0.585 µM
same,MIC,[6],2.34 µM
same,MBC,[7],4.68 µM
same,MIC,[8],2.34 µM
same,MBC,[9],0.146 µM
same,MIC MM,[10],0.293 – µM
same,MIC,[10],0.29 to 22.2 µM
same,MIC,[11],0.293 µM
same,MIC,M. smegmatis ATCC 700084,1.17 µM
same,IC50,[12],8.9 ± 1.3 µM
same,MIC,S. aureus/MRSA,~1.4 µM
same,antistaphylococcal MICs/MBCs,S. aureus/MRSA,0.15 to 5.57 µM and 0.146 to 5.57 µM
same,melting point,,207 to 209 °C
same,MBC,[13],9.36 µM
same,MIC,[14],4.68 µM
same,MBC,[15],0.293 µM
same,MBC,[16],0.585 µM
same,MBC,[17],4.68 µM
same,MIC,E. faecalis/VRE,~15 µM
same,anti-enterococcal MICs/MBCs,E. faecalis/VRE,2.34 to 44.5 µM
same,Conc.: lowest multiple of MIC with at least 70% inhibition of respiratory activity,S. aureus ATCC 29213,2× MIC (2× MBC)
same,Conc.: the same concentration as multiple of MBC,S. aureus ATCC 29213,2× MIC (2× MBC)
same,MBC,[18],2.34 µM
same,MIC,[19],0.146 µM
same,MIC,[20],~4.1 µM
